# Measured values reported in patent US20110039762A1, “TARGETED ANTIMICROBIAL MOIETIES” (C3 JIAN, INC., priority 2009, published 2011).
# Entries after “also recorded” stand apart in the source; their conditions may differ.
# Key:
# S. pneumoniae = assay: Kill or inhibit growth/proliferation; morphology, biofilm and growth disruption (Tables 5, 6); type: cell-based, Streptococcus pneumoniae; parameters: key: A: Peptide aggregates; B: Less hyphal formation; Clumps; Diffuse clumps and small polyps; F: Diffuse growth; H: Thin; I: Growth inhibition; Microcolony formation; Rippled; Small polyps; Thick; W: Halo formation on top, microlonies on bottom; further: test concentration or dose not given here
# [1] = system: microorganisms (e.g., bacteria, yeasts, fungi); assay: Targeting peptide binding to target microorganisms (Table 3); settings: for Target(s) (microorganisms bound by the targeting peptide): peptide binding in aqueous buffers varied by peptide solubility; for Target(s) (microorganisms bound by the targeting peptide) / Target(s): preferably 1x PBS
# microorganisms = assay: Peptides having multiple activities (targeting/binding, antimicrobial, growth or phenotype altering); parameters: key: B: targeting/binding activity;; M: antimicrobial activity;; G: Growth or phenotype altering
# Excerpt: In certain embodiments, peptides described herein can have multiple activities. Thus for example, a peptide can have both binding/targeting activity and antimicrobial activity. Such peptides can be used, e.g., in a chimeric construct, for any or all of these properties. Thus, for example, a peptide designated “B” in Table 8 can be used as a targeting peptide. If it is also designated G or M it can also be used for antimicrobial activity.
# [2] = microorganism the targeting peptide binds, binding in aqueous buffers varied by peptide solubility
Substance,"Organism, effect (S. pneumoniae)",Target(s) (microorganisms bound by the targeting peptide) [1],"Organism, effect (morphology, biofilm and growth disruption) (S. pneumoniae)",further results
PF-419 (VVTGKVGSLPQIK; Peptide with targeting and/or antimicrobial activity),S. pneumoniae (H),,,
PF-449 (MPTTKSKQKGWTNTKKASNTQ; Peptide with targeting and/or antimicrobial activity),S. pneumoniae (H),,,
PF-485 (KNSMSRSIALID; Peptide with targeting and/or antimicrobial activity),S. pneumoniae (A),,,
PF-455 (MARNDDDIKKIKGTLGQSPEVYGERKLPYT; Peptide with targeting and/or antimicrobial activity),S. pneumoniae (A),,,
PF-644 (chain 1 TSGLIIGENGLNGL; chain 2 TSGLIIGENGLNGL; Peptide with targeting and/or antimicrobial activity),S. pneumoniae (H),Mycobacteria spp,,
PF-660 (chain 1 TDPQATAAPRRRTSPR; chain 2 TDPQATAAPRRRTSPR; Peptide with targeting and/or antimicrobial activity),,Mycobacteria spp,S. pneumoniae (H),
PF-696 (chain 1 IRSGISAAYARPLR; chain 2 IRSGISAAYARPLR; Peptide with targeting and/or antimicrobial activity),,Mycobacteria spp,S. pneumoniae (H),
PF-665 (chain 1 VLRVATAVGEVPTGL; chain 2 VLRVATAVGEVPTGL; Peptide with targeting and/or antimicrobial activity),,Mycobacteria spp,S. pneumoniae (H),
PF-699 (chain 1 GRAGVKCRRPTGR; chain 2 GRAGVKCRRPTGR; Peptide with targeting and/or antimicrobial activity),,Mycobacteria spp,S. pneumoniae (A),
PF-693 (chain 1 PDPAR; chain 2 PDPAR; Peptide with targeting and/or antimicrobial activity),,Mycobacteria spp,S. pneumoniae (A),
PF-663 (chain 1 ATLIPRKA; chain 2 ATLIPRKA; Peptide with targeting and/or antimicrobial activity),,Mycobacteria spp,S. pneumoniae (A),
PF-691 (chain 1 HRTVEFGVLGTYLVSGGSL; chain 2 HRTVEFGVLGTYLVSGGSL; Peptide with targeting and/or antimicrobial activity),,Mycobacteria spp,S. pneumoniae (R),
PF-537: peptide having multiple activities (chain 1 LANDYYKKTKKSW; chain 2 LANDYYKKTKKSW; Peptide with targeting and/or antimicrobial activity),S. pneumoniae (C),,,Activities (microorganisms): G B
PF-653 (chain 1 QSVHPLPAETPVADVI; chain 2 QSVHPLPAETPVADVI; Peptide with targeting and/or antimicrobial activity),,Mycobacteria spp,S. pneumoniae (H),
PF-415 (MIDVTIGQKSKTGAFNASYSICFSGENFSF; Peptide with targeting and/or antimicrobial activity),S. pneumoniae (D),,,
PF-704 (chain 1 APAARAAL; chain 2 APAARAAL; Peptide with targeting and/or antimicrobial activity),,Mycobacteria spp,S. pneumoniae (C),
PF-682 (chain 1 RRGKSEQGLSRR; chain 2 RRGKSEQGLSRR; Peptide with targeting and/or antimicrobial activity),,Mycobacteria spp,S. pneumoniae (A),
PF-662 (chain 1 GKQSRAHGPVASRREFRRKSG; chain 2 GKQSRAHGPVASRREFRRKSG; Peptide with targeting and/or antimicrobial activity),,Mycobacteria spp,S. pneumoniae (A),

Substance,"Organism, effect (S. pneumoniae)",Target(s) (microorganisms bound by the targeting peptide) [1],"Organism, effect (morphology, biofilm and growth disruption) (S. pneumoniae)",further results
PF-652 (chain 1 FLAPARPDLQAQRQALAQ; chain 2 FLAPARPDLQAQRQALAQ; Peptide with targeting and/or antimicrobial activity),,Mycobacteria spp,S. pneumoniae (A),
PF-516: peptide having multiple activities (ASKQASKQASKQASKQ; Peptide with targeting and/or antimicrobial activity),S. pneumoniae (H),,,Activities (microorganisms): G
PF-465: peptide having multiple activities (chain 1 KPVGKALEEIADGKIEPVVPKEYLG; chain 2 KPVGKALEEIADGKIEPVVPKEYLG; Peptide with targeting and/or antimicrobial activity),S. pneumoniae (H),,,Activities (microorganisms): G B
PF-468 (EDNKDKKDKKDK; Peptide with targeting and/or antimicrobial activity),S. pneumoniae (H),,,
PF-687 (chain 1 AKRVLSLAVAPHRRQPVQGT; chain 2 AKRVLSLAVAPHRRQPVQGT; Peptide with targeting and/or antimicrobial activity),,Mycobacteria spp,S. pneumoniae (A),
PF-220 (VDPADDGTRHIRPEDGDPIEIDE; Peptide with targeting and/or antimicrobial activity),S. pneumoniae (H),,,
PF-651 (chain 1 PRWPTGAGRHR; chain 2 PRWPTGAGRHR; Peptide with targeting and/or antimicrobial activity),,Mycobacteria spp,S. pneumoniae (H),
PF-700 (chain 1 LNWPFTGR; chain 2 LNWPFTGR; Peptide with targeting and/or antimicrobial activity),,Mycobacteria spp,S. pneumoniae (C),
PF-666 (chain 1 PNRRSRPR; chain 2 PNRRSRPR; Peptide with targeting and/or antimicrobial activity),,Mycobacteria spp,S. pneumoniae (A),
PF-702 (chain 1 LSGRLAGRR; chain 2 LSGRLAGRR; Peptide with targeting and/or antimicrobial activity),,Mycobacteria spp,S. pneumoniae (H),
DAANEA [BL-1],,,,bacterial binding ([1]; data not shown): no bacterial binding
PF-678 (RDRRWTRRDMYDWLESARV; Peptide with targeting and/or antimicrobial activity),,Mycobacteria spp,,
1T-192 (ILVLLALQVELDSKFQY; Peptide with targeting and/or antimicrobial activity) [Peptide 1T-192],,,,"Target(s) [1, 2]: S. sanguinis"
PF-688 (chain 1 ARNHAVIPAG; chain 2 ARNHAVIPAG; Peptide with targeting and/or antimicrobial activity),,Mycobacteria spp,S. pneumoniae (A),
PF-329 (IGILFDKSVRKY; Peptide with targeting and/or antimicrobial activity),,,,"Target(s) ([1]; microorganism(s) the targeting peptide binds, binding in aqueous buffers depending on peptide solubility): S. epidermidis"
1T-159 (IFSLHHFALICSEMGTFAVSKRAKYKWEVL; Peptide with targeting and/or antimicrobial activity) [Peptide 1T-159],,,,"Target(s) [1, 2]: P. gingivalis"
PF-788 (GLITVFAGTARILQLRRAAKKTHAAALR; Peptide with targeting and/or antimicrobial activity),,Mycobacteria spp.,,
1T-12 (FGNIFKGLKDVIETIVKWTAAK; Peptide with targeting and/or antimicrobial activity) [Peptide 1T-12],,,,"Target(s) [1, 2]: C. xerosis; also recorded: C. striatum; also recorded: S. epidermidis; also recorded: S. mutans"
